Experimental data taken from patent US7348425B2, “Inhibitors of HCV replication” (Bristol-Myers Squibb Company, priority 2004, dated 2008).
pEC50, pIC50: −log10 of the molar value. Like-named read-outs stand apart in the source and are kept apart here.

How the values were obtained:
[1] = test system: HCV replicon; assay: HCV replicon luciferase assay; format: cell-based, Hepatitis C virus
Experimental: To prepare plates, HCV replicon cells, with or without a Renilla luciferase reporter gene, were trypsinized and placed into each well of a 96-well plate with titrated test compounds added in columns 3 through 12; columns 1 and 2 contained a control compound (HCV protease inhibitor), and the bottom row contained cells without compound. The plates were then placed in a CO2 incubator at 37 degrees C.
Assays. Subsequent to addition of the test compounds described above (FRET Assay Preparation), at various times the plate was removed and Alamar blue solution (Trek Diagnostics, #00-100) was added per well as a measure of cellular toxicity. After reading in a Cytoflour 4000 instrument (PE Biosystems), plates were rinsed with PBS and then used for FRET assay by the addition of 30 ul of the FRET peptide assay reagent described above (FRET Assay Preparation) per well. The plate was then placed into the Cytoflour 4000 instrument which had been set to 340 excite/490 emission, automatic mode for 20 cycles and the plate read in a kinetic mode. Typically, the signal to noise using an endpoint analysis after the reads was at least three-fold. Alternatively, after Alamar blue reading, plates were rinsed with PBS, 50 ul of DMEM (high glucose) without phenol red was added and plates were then used for luciferase assay using the Promega Dual-Glo Luciferase Assay System.
Compound analysis was determined by quantification of the relative HCV replicon inhibition and the relative cytotoxicity values. To calculate cytoxicity values, the average Alamar Blue fluorescence signals from the control wells were set as 100% non-toxic. The individual signals in each of the compound test wells were then divided by the average control signal and multiplied by 100% to determine […]. To calculate the HCV replicon inhibition values, an average background value was obtained from the two wells containing the highest amount of HCV protease inhibitor at the end of the assay period. These numbers were similar to those obtained from naïve Huh-7 cells.
The background numbers were then subtracted from the average signal obtained from the control wells and this number was used as 100% activity. The individual signals in each of the compound test wells were then divided by the averaged control values after background subtraction and multiplied by 100% to determine percent activity. EC50 values for a protease inhibitor titration were calculated as the concentration which caused a 50% reduction in FRET or luciferase activity. The two numbers generated for the compound plate, percent cytoxicity and percent activity were used to determine compounds of interest for further analysis.

[2] = target: T1, HCV NS5B RdRp genotype 1b (Hepatitis C virus genotype 1b, UniProt Q9WMX2); assay: Standard HCV NS5B RdRp enzyme assay; format: biochemical; conditions: standard method
T1 construct: The protein was expressed with an 18 amino acid C-terminal truncation to enhance the solubility; made in house; host or cells: E. coli BL21 (DE3), pET21a
Experimental: HCVNS5B RdRp cloning, expression, and purification. The cDNA encoding the NS5B protein of HCV, genotype 1b, was cloned into the pET21a expression vector. The protein was expressed with an 18 amino acid C-terminal truncation to enhance the solubility. The E. coli competent cell line BL21 (DE3) was used for expression of the protein. Cultures were grown at 37° C. for ˜4 hours until the cultures reached an optical density of 2.0 at 600 nm. The cultures were cooled to 20° C. and induced with 1 mM IPTG. Fresh ampicillin was added to a final concentration of 50 μg/ml and the cells were grown overnight at 20° C.
Cell pellets (3 L) were lysed for purification to yield 15-24 mgs of purified NS5B. The lysis buffer consisted of 20 mM Tris-HCl, pH 7.4, 500 mM NaCl, 0.5% triton X-100, 1 mM DTT, 1 mM EDTA, 20% glycerol, 0.5 mg/ml lysozyme, 10 mM MgCl2, 15 ug/ml deoxyribonuclease I, and Complete TM protease inhibitor tablets (Roche). After addition of the lysis buffer, frozen cell pellets were resuspended using a tissue homogenizer. To reduce the viscosity of the sample, aliquots of the lysate were sonicated on ice using a microtip attached to a Branson sonicator. The sonicated lysate was centrifuged at 100,000×g for 1 hr at 4° C. and filtered through a 0.2 μm filter unit (Corning).
The protein was purified using three sequential chromatography steps: Heparin sepharose CL-6B, polyU sepharose 4B, and Hitrap SP sepharose (Pharmacia). The chromatography buffers were identical to the lysis buffer but contained no lysozyme, deoxyribonuclease I, MgCl2 or protease inhibitor and the NaCl concentration of the buffer was adjusted according to the requirements for charging the protein onto the column. Each column was eluted with a NaCl gradient which varied in length from 5-50 column volumes depending on the column type. After the final chromatography step, the resulting purity of the enzyme is >90% based on SDS-PAGE analysis. The enzyme was aliquoted and stored at −80° C.
Standard HCV NS5B RdRp enzyme assay. HCV RdRp genotype Ib assays were run in a final volume of 60 μl in 96 well plates (Costar 3912). The assay buffer is composed of 20 mM Hepes, pH 7.5, 2.5 mM KCl, 2.5 mM MgCl2, 1 mM DTT, 1.6 U RNAse inhibitor (Promega N2515), 0.1 mg/ml BSA (Promega R3961), and 2% glycerol. All compounds were serially diluted (3-fold) in DMSO and diluted further in water such that the final concentration of DMSO in the assay was 2%. HCV RdRp genotype 1b enzyme was used at a final concentration of 28 nM. A polyA template was used at 6 nM, and a biotinylated oligo-dT12 primer was used at 180 nM final concentration. Template was obtained commercially (Amersham 27-4110). Biotinylated primer was prepared by Sigma Genosys. ^3H-UTP was used at 0.6 μCi (0.29 μM total UTP). Reactions were initiated by the addition of enzyme, incubated at 30° C. for 60 min, and stopped by adding 25 μl of 50 mM EDTA containing SPA beads (4 μg/μl, Amersham RPNQ 0007). Plates were read on a Packard Top Count NXT after >1 hr incubation at room temperature.
The IC50 values for compounds were determined using seven different [I]. IC50 values were calculated from the inhibition using the formula y=A+((B−A)/(1+((C/x)^D))). FRET Assay Preparation. To perform the HCV FRET screening assay, 96-well cell culture plates were used. The FRET peptide (Anaspec, Inc.) (Taliani et al., Anal. Biochem. 240:60-67 (1996), hereby incorporated by reference in its entirety) contains a fluorescence donor, EDANS, near one end of the peptide and an acceptor, DABCYL, near the other end. The fluorescence of the peptide is quenched by […] resonance energy transfer (RET) between the donor and the acceptor, but as the NS3 protease cleaves the peptide the products are released from RET quenching and the fluorescence of the donor becomes apparent. […]

[3] = Hepatitis C virus, luciferase method, read-out: EC50
[4] = luciferase method, read-out: EC50

T1 sequence (Q9WMX2 2420-2992): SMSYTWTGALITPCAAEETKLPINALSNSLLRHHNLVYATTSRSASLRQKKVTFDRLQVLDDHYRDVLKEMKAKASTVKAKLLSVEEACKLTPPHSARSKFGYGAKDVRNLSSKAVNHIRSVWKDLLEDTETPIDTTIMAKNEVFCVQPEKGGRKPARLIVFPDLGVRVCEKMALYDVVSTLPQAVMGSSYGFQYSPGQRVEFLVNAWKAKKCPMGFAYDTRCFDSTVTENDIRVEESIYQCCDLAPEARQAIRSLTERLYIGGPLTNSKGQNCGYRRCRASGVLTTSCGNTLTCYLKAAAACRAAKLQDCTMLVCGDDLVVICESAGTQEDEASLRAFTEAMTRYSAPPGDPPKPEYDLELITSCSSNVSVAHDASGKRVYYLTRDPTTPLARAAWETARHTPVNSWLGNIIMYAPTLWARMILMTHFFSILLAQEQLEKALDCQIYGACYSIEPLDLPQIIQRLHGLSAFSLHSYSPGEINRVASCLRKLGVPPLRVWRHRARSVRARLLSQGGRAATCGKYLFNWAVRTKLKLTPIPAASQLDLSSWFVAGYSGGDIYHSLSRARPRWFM

O=C(O)/C=C/c1cccc(-c2nc(C3(NC(=O)c4ccc5c(C6CCCCC6)c6n(c5c4)CC=Cc4ccccc4-6)CCCC3)no2)c1 [Example 26]
pEC50 [1, 3]: 6.00 to 7.00
pIC50 [2]: < 6.00

O=C(O)CCCc1nc(C2(NC(=O)c3ccc4c(C5CCCCC5)c5n(c4c3)CC=Cc3ccccc3-5)CCCC2)no1 [Example 23, 3-[1-[[(13-cyclohexyl-7H-indolo[2,1-a][2]benzazepin-10-yl)carbonyl]amino]cyclopentyl]-1,2,4-oxadiazole-5-butanoic acid]
pEC50 [1, 3]: 6.00 to 7.00
pIC50 [2]: < 6.00

O=C(O)c1ccc2c(C3CCCCC3)c3n(c2c1)CC(C(=O)N1CCC(N2CCCC2)CC1)Cc1ccccc1-3 (stereo not shown)
pEC50 [1, 3]: 6.00 to 7.00
pIC50 [2]: 6.00 to 7.00

O=C1Cn2c(c(C3CCCCC3)c3ccc(C(=O)NS(=O)(=O)C4CC4)cc32)-c2ccccc2N1
pEC50 [1, 3]: 6.00 to 7.00
pIC50 [2]: 6.00 to 7.00

O=C(O)/C=C/c1ccc(-c2nc(C3(NC(=O)c4ccc5c(C6CCCCC6)c6n(c5c4)CC=Cc4ccccc4-6)CCCC3)no2)cc1 [Example 25]
pEC50 [1, 3]: 6.00 to 7.00
pIC50 [2]: < 6.00

O=C(O)c1ccc2c(C3CCCCC3)c3n(c2c1)CCCc1cc(O)ccc1-3
pEC50 [1, 3]: 6.00 to 7.00
pIC50 [2]: 6.00 to 7.00

O=C(O)c1ccc2c(C3CCCCC3)c3n(c2c1)CC(C(=O)N1CCCCC1)Cc1ccccc1-3 (stereo not shown) [drawing 118]
pEC50 [1, 4]: 6.00 to 7.00
pIC50 [2]: 6.00 to 7.00

O=C(O)c1ccc2c(C3CCCCC3)c3n(c2c1)CC(C(=O)N1CCCC(O)C1)Cc1ccccc1-3 (stereo not shown) [drawing 121]
pEC50 [1, 4]: 6.00 to 7.00
pIC50 [2]: 6.00 to 7.00

O=C(O)/C=C/c1ccc(NC(=O)C2(NC(=O)c3ccc4c(C5CCCCC5)c5n(c4c3)CC(C(=O)N3CCOCC3)Cc3ccccc3-5)CCCC2)cc1 (stereo not shown)
pEC50 [1, 3]: > 7.00
pIC50 [2]: 6.00 to 7.00

CN(C)S(=O)(=O)NC(=O)c1ccc2c(C3CCCCC3)c3n(c2c1)CC(C(=O)N1CCC(N2CCCC2)CC1)Cc1ccccc1-3 (stereo not shown)
pEC50 [1, 3]: > 7.00
pIC50 [2]: 6.00 to 7.00

O=C(O)c1ccc2c(C3CCCCC3)c3n(c2c1)CC(C(=O)N1CCC(O)CC1)Cc1ccccc1-3 (stereo not shown)
pEC50 [1, 3]: 6.00 to 7.00
pIC50 [2]: 6.00 to 7.00

CN(C)CCNC(=O)C1Cc2ccccc2-c2c(C3CCCCC3)c3ccc(C(=O)O)cc3n2C1 (stereo not shown)
pEC50 [1, 3]: 6.00 to 7.00
pIC50 [2]: 6.00 to 7.00

O=C(O)c1ccc2c(C3CCCCC3)c3n(c2c1)CC(C(=O)N1CCOCC1)=Cc1ccccc1-3
pEC50 ([1]; Hepatitis C virus): 6.00 to 7.00
pIC50 [2]: 6.00 to 7.00

CN1CCN(C(=O)C2Cc3ccccc3-c3c(C4CCCCC4)c4ccc(C(=O)NS(=O)(=O)N(C)C)cc4n3C2)CC1 (stereo not shown)
pEC50 [1, 3]: 6.00 to 7.00
pIC50 [2]: 6.00 to 7.00

CN1CCN(C(=O)C2Cc3ccccc3-c3c(C4CCCCC4)c4ccc(C(=O)O)cc4n3C2)CC1 (stereo not shown)
pEC50 [1, 3]: 6.00 to 7.00
pIC50 [2]: 6.00 to 7.00

COC1c2ccccc2-c2c(C3CCCCC3)c3ccc(C(=O)O)cc3n21 (stereo not shown)
pEC50 [1, 3]: < 5.00
pIC50 [2]: < 6.00

CN(C)S(=O)(=O)NC(=O)c1ccc2c(C3CCCCC3)c3n(c2c1)CC(C(=O)N1CCOCC1)=Cc1ccccc1-3
pEC50 ([1]; Hepatitis C virus): > 7.00
pIC50 [2]: 6.00 to 7.00

O=C(O)/C=C/c1ccc(NC(=O)C2(NC(=O)c3ccc4c(C5CCCCC5)c5n(c4c3)CCCc3ccccc3-5)CCNCC2)cc1 [Example 29, 2-propenoic acid, 3-[4-[[[4-[[(13-cyclohexyl-6,7-dihydro-5H-indolo[2,1-a][2]benzazepin-10-yl)carbonyl]amino]-4-piperidinyl]carbonyl]amino]phenyl]-, (2E)-]
pEC50 [1, 3]: > 7.00
pIC50 [2]: 6.00 to 7.00

CC(C)(C)OC(=O)/C=C/c1ccc(NC(=O)C2(NC(=O)c3ccc4c(C5CCCCC5)c5n(c4c3)CC(=O)Nc3cccnc3-5)CCCC2)cc1
pEC50 [1, 3]: 6.00 to 7.00
pIC50 [2]: < 6.00

COC(=O)c1ccc2c(C3CCCCC3)c3n(c2c1)CC(C(=O)N1CCN(c2ccncc2)CC1)=Cc1ccccc1-3
pEC50 [1, 3]: 5.00 to 6.00
pIC50 [2]: < 6.00

O=C(O)c1ccc2c(C3CCCCC3)c3n(c2c1)CC(C(=O)N1CCCCC1)Cc1ccccc1-3 (stereo not shown) [drawing 116]
pEC50 [1, 4]: 6.00 to 7.00
pIC50 [2]: 6.00 to 7.00

O=C(O)/C=C/c1ccc(NC(=O)C2(NC(=O)c3ccc4c(C5CCCCC5)c5n(c4c3)CCOc3ccccc3-5)CCCC2)cc1
pEC50 [1, 3]: > 7.00
pIC50 [2]: 6.00 to 7.00

O=C(O)c1ccc2c(C3CCCCC3)c3n(c2c1)Cc1ccccc1-3 [Example 7]
pEC50 [1, 3]: < 5.00
pIC50 [2]: 6.00 to 7.00

O=C(O)/C=C/c1ccc(NC(=O)C2(NC(=O)c3ccc4c(C5CCCCC5)c5n(c4c3)CCCCNc3ccccc3-5)CCCC2)cc1
pEC50 [1, 3]: > 7.00
pIC50 [2]: < 6.00

COC(=O)c1ccc2c(C3CCCCC3)c3n(c2c1)CC(C(=O)N1CCN(c2ccncc2)CC1)Cc1ccccc1-3 (stereo not shown)
pEC50 [1, 3]: 6.00 to 7.00
pIC50 [2]: < 6.00

CN(C)S(=O)(=O)NC(=O)c1ccc2c(C3CCCCC3)c3n(c2c1)CCCc1ccccc1-3
pEC50 [1, 3]: 6.00 to 7.00
pIC50 [2]: 6.00 to 7.00

COC(=O)c1ccc2c(C3CCCCC3)c3n(c2c1)CC(=O)Nc1cccnc1-3 [Example 14, Methyl 13-cyclohexyl-6,7-dihydro-6-oxo-5H-pyrido[3′,2′:5,6][1,4]diazepino[1,7-a]indole-10-carboxylate]
pEC50 [1, 3]: < 5.00
pIC50 [2]: < 6.00

O=C(O)C1=Cc2ccccc2-c2c(C3CCCCC3)c3ccc(C(=O)O)cc3n2C1
pEC50 [1, 3]: < 5.00
pIC50 [2]: 6.00 to 7.00

O=C(O)/C=C/c1ccc(NC(=O)C2(NC(=O)c3ccc4c(C5CCCCC5)c5n(c4c3)CCOc3cccnc3-5)CCCC2)cc1
pEC50 [1, 3]: > 7.00
pIC50 [2]: 6.00 to 7.00

CCOC(=O)/C=C/c1ccc(NC(=O)C2(NC(=O)c3ccc4c(C5CCCCC5)c5n(c4c3)CCCc3ncccc3-5)CCCC2)cc1
pEC50 [1, 3]: > 7.00
pIC50 [2]: < 6.00

O=C(O)c1ccc2c(C3CCCCC3)c3n(c2c1)CC(C(=O)N1CCCC(O)C1)Cc1ccccc1-3 (stereo not shown) [drawing 120]
pEC50 [1, 4]: 5.00 to 6.00
pIC50 [2]: < 6.00

CN(C)S(=O)(=O)NC(=O)c1ccc2c(C3CCCCC3)c3n(c2c1)CC=Cc1ccccc1-3 [Example 19, 13-cyclohexyl-N-(dimethylaminosulfonyl)-7H-indolo[2,1-a][2]benzazepine-10-carboxamide]
pEC50 [1, 3]: 6.00 to 7.00
pIC50 [2]: 6.00 to 7.00
